The values below come from US8383683B2, “Pharmaceutical use of substituted amides” (High Point Pharmaceuticals, LLC, priority 2007, dated 2013).

By IC50 is commonly meant the midpoint of a concentration-inhibition curve. Read a low IC50 as inhibition by little substance.

The target of the first experiment is T1, 11βHSD1 (Homo sapiens, UniProt P28845).
T1 sequence (P28845 whole entry): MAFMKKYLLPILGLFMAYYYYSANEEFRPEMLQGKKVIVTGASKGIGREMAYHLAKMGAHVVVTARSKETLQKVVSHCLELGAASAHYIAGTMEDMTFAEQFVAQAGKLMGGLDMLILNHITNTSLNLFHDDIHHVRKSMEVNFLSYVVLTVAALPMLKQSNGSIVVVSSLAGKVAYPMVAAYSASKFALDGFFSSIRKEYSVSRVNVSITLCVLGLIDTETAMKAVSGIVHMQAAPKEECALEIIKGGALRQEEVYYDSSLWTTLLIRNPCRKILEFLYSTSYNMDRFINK
Experiment: not given
Also on record: host or cells: human volunteers and patients (in vivo). To be noted: lean healthy volunteers and people with type 2 diabetes; cited from earlier work.
With `CC1(C)[C@@H](OC(=O)CCC(=O)O)CC[C@]2(C)[C@H]3C(=O)C=C4[C@@H]5C[C@@](C)(C(=O)O)CC[C@]5(C)CC[C@@]4(C)[C@]3(C)CC[C@@H]12` [carbenoxolone], the insulin sensitivity result is reported as “improves insulin sensitivity”.

The next experiment concerns the target T1, 11βHSD1. As to the kind of experiment: 11βHSD1 enzyme assay (SPA, 3H-cortisone to 3H-cortisol). In kind it is biochemical. Also on record: An extract of yeast transformed with h-11βHSD1 (Hutt et al., FEBS Lett., 441, 25 (1998)) was used as the source of enzyme; made in house. Conditions: extract of yeast transformed with h-11βHSD1; 120 nM 3H-cortisone, 4 mM β-NADPH, 60 min at 30° C.
`O=C(CCCOc1ccccn1)NC1C2CC3CC1CC(O)(C3)C2` (stereo not drawn) [Example 1-87, N-(5-Hydroxy-adamantan-2-yl)-4-(pyridin-2-yloxy)-butyramide] gave a half-inhibitory concentration (IC50) of 227 nM.
Same read-out and setting: in the case of `CC(C)(CCOc1ccc(Cl)cc1Cl)C(=O)NC1C2CC3CC1CC(O)(C3)C2` (stereo not drawn) [Example 2-1, 4-(2,4-Dichloro-phenoxy)-N-(5-hydroxy-adamantan-2-yl)-2,2-dimethyl-butyramide] it was 2 nM.
Same read-out and setting: next, `CC(C)(CCOc1ccc(Cl)cc1Cl)C(=O)N1C2CCC1CC(O)C2` (stereo not drawn) [Example 2-3, 4-(2,4-Dichloro-phen-oxy)-1-(3-hydroxy-8-aza-bicyclo[3.2.1]oct-8-yl)-2,2-dimethyl-butan-1-one]: 206 nM.
Compound `CC(C)(CCOc1ccc(Cl)cc1Cl)C(=O)NC1C2CC3CC1CC(CO)(C3)C2` (stereo not drawn) [Example 2-4, 4-(2,4-Dichloro-phen-oxy)-N-(5-hydroxy-methyl-adamantan-2-yl)-2,2-dimethyl-butyramide] yielded an IC50 of 3 nM. This IC50 is about 69-fold lower than that of the compound before.
Take `O=C(NC1C2CC3CC1CC(O)(C3)C2)C1(CCOc2ccc(Cl)cc2Cl)CC1` (stereo not drawn) [Example 2-5, 1-[2-(2,4-Dichloro-phen-oxy)-ethyl]-cyclo-pro-panecarboxylic acid (5-hydroxy-adamantan-2-yl)-amide]: the midpoint of inhibition, the IC50, lay at 4 nM.
